From PMC13183915, “A platinum butterfly effect: small changes turn an anticancer drug into a non-toxic metalloantibiotic with in vivo efficacy” (npj Antimicrobials and Resistance, 2026)
“And” between values parts separate entries of the source, which are not always exact repeats. Equal entries are not always repeated.

Tests used:
[1] = tested on: MRSA NRS 193; test: Broth microdilution MIC, MRSA NRS 193; assay type: cell-based, S. aureus; details: MRSA NRS 193
Method: (§1) The data is given in supporting information (Table S5). Before starting the experiment, a single colony was picked from MHA plate, inoculated in MHBII and incubated overnight at 37 °C with shaking for 18–24 h to get the starter culture. Antibiotic susceptibility testing was conducted according to the CLSI (Clinical & Laboratory Standards Institute) guidelines using the broth microdilution assay. 10 mg/mL stock solutions of test compounds were prepared in DMSO. Bacterial cultures were inoculated in MHBII and optical density (OD) was measured at 600 nm, followed by dilution to achieve ~10^6 CFU/mL. The compounds were tested from 64 to 0.5 mg/L in two-fold serial diluted fashion with 2.5 μL of each concentration added to well of a 96-well round bottom microtiter plate. Later, 97.5 μL of bacterial suspension was added to each well containing either test compound or appropriate controls. […] The MIC is defined as the lowest concentration of the compound at which there is absence of visible growth. For each test compound, MIC determinations were carried out independently three times using duplicate samples.

[2] = tested on: B. subtilis bSS82; test: Bacterial cytological profiling (BCP); assay type: cell-based, Bacillus subtilis
Description: To get an overview of the cellular effects of the compounds, we employed bacterial cytological profiling (BCP). To this end, we used a strain intracellularly expressing green-fluorescent protein (GFP) from the strong, constitutive PrpsD promoter (B. subtilis bSS82[37]), stained with the membrane dye Nile red and the DNA dye DAPI. Combined with phase contrast microscopy, this setup allows simultaneous assessment of cell morphology, cell lysis, pore formation, membrane morphology, and nucleoid morphology in one assay.
BCP was performed according to Wenzel et al.[71]. In short, B. subtilis strain […] (PrpsD-gfp) was grown to an OD600 of 0.3 prior to splitting of parent cultures and addition of antibiotics. Samples were taken for microscopy after 30, 60, and 120 min of antibiotic treatment. Five minutes prior to sampling, cultures were stained with 0.5 µg/mL Nile red and 1 µg/mL DAPI for 5 min. Samples of 0.5 µL were then spotted onto 1% agarose slides[45] and images were taken immediately.
Cell length and DAPI intensity were analyzed using MicrobeJ[73]. To this end, the fit shape, rod-shaped setting was used with a minimum area of 0.5 µm, while all other settings remained at default. B. subtilis chains were seperated based on the membrane stain. Membrane stress was counted using the ObjectJ plugin[74], using the membrane setting to seperate individual cells in chains. Membrane damage was expressed as ratio of cells with visible Nile red foci and total detected cells. DNA compaction was analyzed by determining the area of the DNA and the whole cell are using advanced weka segmentation. Cells were segmented according to the GFP signal. […] Cells that were out of focus or lysed were excluded from the analysis. Statistical analysis was peformed using GraphPad Prism 10 as specified in the individual figure legends.

[3] = tested on: B. subtilis 168CA; test: Propidium iodide pore assay; assay type: cell-based, Bacillus subtilis; details: 3.125 µM Pt1, 25 µM Pt8; 30 and 60 min
Method: Propidium iodide staining was performed as described previously. B. subtilis 168CA was grown to an OD600 of 0.3 prior to splitting of the parent culture and treatment with the different antibiotics. After 15 and 45 min, samples were stained with 13.3 µg/mL propidium iodide for 15 min (total treatment times 30 and 60 min), and washed 3 times with phosphate-buffered saline (PBS). Fluorescence signals were recorded at an excitation wavelength of 535–15 nm and an emission wavelength of 617–20 nm in a BMG Clariostar Plus plate reader.

[4] = tested on: MRSA NRS 100; test: Broth microdilution MIC, MRSA NRS 100; assay type: cell-based, S. aureus; details: MRSA NRS 100
Method: as §1

[5] = tested on: E. coli (NCTC 13476); test: MIC, E. coli NCTC 13476 (with or without PMBN); assay type: cell-based; details: E. coli NCTC 13476 + 10 µg/mL PMBN (polymyxin B nonapeptide)
[6] = tested on: B. subtilis 168CA; test: DiSC3(5)-based membrane potential measurement; assay type: cell-based, Bacillus subtilis; details: 3.125 µM Pt1, 25 µM Pt8
Method: The membrane potential was measured according to Winkel et al. with minor modifications. B. subtilis 168CA was grown in LB containing 50 µg/mL bovine serum albumin (BSA). Cells were transferred to black 96-well polystyrene microtiter plates after reaching an OD600 of 0.3. DiSC3(5) was added to a final concentration of 1 µM, maintaining a constant concentration of 1% DMSO to avoid precipitation of the dye. After the fluorescence baseline had stabilized, antibiotic compounds were added, and measurements were continued for 30 min. Fluorescence was recorded at an excitation wavelength of 610–30 nm and an emission wavelength of 675–50 nm in a BMG Clariostar Plus plate reader.

[7] = tested on: C. albicans; design: method as in PMID 36311838; details: cited from earlier work
[8] = tested on: S. aureus ATCC 29213; test: Drug interaction study (chequerboard assay); assay type: cell-based
Method: All compounds were freshly prepared for the experiment. […] Following incubation, the fractional inhibitory concentration index (FICI) was calculated with the formula FICI = […], whereby FICA = MIC of drug A in combination/MIC of drug A alone and FICB = MIC of drug B in combination/MIC of drug B alone. A drug combination is considered synergistic when ∑FICI is ≤0.5, indifferent when ∑FICI is >0.5 to 4, and antagonistic when ∑FICI is >4.

[9] = tested on: λ-phage DNA; test: Single-molecule imaging of YOYO-1-labeled λ-DNA, DNA length analysis; assay type: biochemical
[10] = tested on: 36th Passage S.aureus ATCC 29213 in the presence of Pt-1; test: microbe, parasite or virus in culture; assay type: cell-based; details: strain resulting from 36 passages
Method: The MICs of the passaged cultures were determined every 3 days and compared to that of wild type S. aureus ATCC 29213. MIC changes were recorded for 36 passages.

[11] = 60 min, Pt1 3.125 µM, Pt8 25 µM, CisPt 100 µM

Q: What does the source list for `C1=C\CC/C=C\CC/1.[Cl][Pt][Cl]` [Pt1]?
A: MIC [1]: 0.25 µg/mL and 0.67 µM; Nile red foci (membrane stress) ([2]; 3.125 µM, not statistically supported): Nile red foci, indicating membrane stress, were observed; DAPI fluorescence intensity [2, 11]: significant reduction of the DAPI signal; nucleoid compaction (cell area vs DAPI-stained nucleoid area) [2, 11]: clear nucleoid compaction; propidium iodide (PI) uptake [3]: Neither Pt1 nor Pt8 showed increased PI uptake; MIC [4]: 0.67 to 1.34 µM; MIC [5]: > 100 µM; membrane depolarization (DiSC(3)5) [6]: no membrane depolarization could be observed; fungal load [7]: reduced the fungal load; FIC B ([8]; antibiotic in combination with Pt1 / alone): 1; FIC (FICA+FICB) ([8]; combination with Pt1): 2; Interference ([8]; combination with Pt1, synergistic ≤0.5, indifferent >0.5 to 4, antagonistic >4): no interaction; MIC ([8]; compound alone, Table S8): 0.125 µg/mL; DNA molecule length shift ([9]; 3.125 µM Pt1, 25 µM Pt8, 100 µM CisPt, 10 min): shorter fragments; DNA fragmentation at swapped (equimolar comparison) concentrations ([9]; 25 µM Pt1, 3.125 µM Pt8): stronger DNA fragmentation; cross-resistance to other antibiotics [10]: no cross-resistance was observed
